Where two headings read alike, the source gives them in different places. No end group written: not given here.
System: HeLa 654 cells
Assay: eGFP exon-skipping reporter assay, flow cytometry analysis of GFP fluorescence
Type: cell-based
[1] = eGFP fluorescence of CPP-PMO IVS2-654 conjugate compared to unconjugated PMO, 5 μM, 22 hours, MEM with 10% FBS
[2] = […], 5 μM, 22 hours, MEM with 10% FBS

## Buforin 2
[1]
  Activity Relative to PMO: 1.9

## Melittin
[2]
  Activity Relative to PMO: 4.5

## Penetratin
[1]
  Activity Relative to PMO: 4.2

## Pyrrhocoricin (VDKGSYLPRPTPPRPIYNRN; ends and bridges not checked; also: conjugated to PMO cargo; UniProt P37362 1-20, looked up)
  Activity Relative to PMO: 1.4

## SAP(E)
[1]
  Activity Relative to PMO: 0.8

## Transportan 10
[2]
  Activity Relative to PMO: 0.8

## λN(1-22): PMO IVS2-654 conjugated to CPP MDAQTRRRERRAEKQAQWKAAN (also: conjugated to PMO IVS2-654 cargo; UniProt P03045 1-22, looked up, fragment)
[2]
  Activity Relative to PMO: 1.4

From patent US12138312B2, “Cell-penetrating peptides for antisense delivery” (Sarepta Therapeutics, Inc., priority 2017, dated 2024)
